Results published in PubChem BioAssay (NCI).
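Grown in 96-well plates, cells were treated for 48 hours with each compound at five concentrations. Insufficient inhibition: endpoint recorded as highest concentration tested. GI50 = concentration required for 50% inhibition of growth. TGI: concentration producing complete growth inhibition.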

What was measured:
Assay in all cases: NCI-60 cell line screen, 48 h
786-0 renal = system: 786-0 renal
BT-549 breast = system: BT-549 breast
DU-145 prostate = system: DU-145 prostate
HCT-116 colon = system: HCT-116 colon
LOX IMVI melanoma = system: LOX IMVI melanoma
MCF7 breast = system: MCF7 breast
OVCAR-8 ovarian = system: OVCAR-8 ovarian
PC-3 prostate = system: PC-3 prostate
UACC-62 melanoma = system: UACC-62 melanoma
SK-MEL-2 melanoma = system: SK-MEL-2 melanoma

Row | SMILES | GI50 (786-0 renal) [µM] | TGI (786-0 renal) [µM] | GI50 (BT-549 breast) [µM] | TGI (BT-549 breast) [µM] | GI50 (DU-145 prostate) [µM] | TGI (DU-145 prostate) [µM] | GI50 (HCT-116 colon) [µM] | TGI (HCT-116 colon) [µM] | GI50 (LOX IMVI melanoma) [µM] | TGI (LOX IMVI melanoma) [µM] | GI50 (MCF7 breast) [µM] | TGI (MCF7 breast) [µM] | GI50 (OVCAR-8 ovarian) [µM] | TGI (OVCAR-8 ovarian) [µM] | GI50 (PC-3 prostate) [µM] | TGI (PC-3 prostate) [µM] | GI50 (UACC-62 melanoma) [µM] | TGI (UACC-62 melanoma) [µM] | TGI (SK-MEL-2 melanoma) [µM] | GI50 (SK-MEL-2 melanoma) [µM]
1 | O=C(CCc1nnc(-c2c(Cl)cccc2Cl)o1)c1nc2ccccc2[nH]1 | 10.7 | 45.5 | 7.54 | 92.4 | 17.8 | > 100 | 3.33 | 13.5 | 4.03 | 39.8 | 4.57 | > 100 | 9.26 | > 100 | 3.71 | > 100 | 3.34 | 27.8 | – | –
2 | CCOc1cc(C=O)c2c(ccc3ccc(OC)c(OC)c32)c1OC | – | > 100 | – | > 100 | – | > 100 | – | > 100 | – | > 100 | – | – | – | > 100 | – | > 100 | – | > 100 | > 100 | –
3 | O=c1c2cc(Br)ccc2[nH]c(=S)n1-c1ccc(Br)cc1 | – | > 100 | – | – | – | – | – | > 100 | – | > 100 | – | – | – | > 100 | – | – | – | – | > 100 | –
4 | Cn1c(=O)nc2n(-c3ccc(F)cc3)c3ccccc3nc-2c1=O | – | > 100 | – | – | – | – | – | 37.9 | – | – | – | – | – | 67.4 | – | – | – | 25 | 51.1 | –
5 | O=C(CCc1nnc2s/c(=C\c3ccc4c(c3)OCO4)c(=O)n12)Nc1cc(Cl)ccc1Cl | – | > 100 | – | – | – | – | – | > 78.8 | – | > 100 | – | – | – | > 100 | – | – | – | > 100 | > 100 | –
6 | O=C(CCCCC(=O)N/N=C\c1ccccc1Cl)N/N=C\c1ccccc1Cl | 14.7 | 74.9 | – | – | 8.33 | > 100 | 0.654 | > 100 | > 100 | > 100 | 1.62 | > 100 | 0.515 | 30.6 | 0.511 | > 100 | 3.98 | > 100 | 33.9 | 12.5
7 | Cc1cc2cc(Cl)ccc2nc1C(=O)c1ccccc1 | – | > 100 | – | – | – | – | – | > 100 | – | > 100 | – | – | – | > 100 | – | – | – | > 100 | > 100 | –
8 | O=C1C(c2ccc([N+](=O)[O-])cc2)=[N+]([O-])c2ccccc21 | – | > 100 | – | – | – | – | – | 64.3 | – | 60.9 | – | – | – | 16.4 | – | – | – | 40.5 | > 100 | –
9 | C#CC[C@@H]1C[C@]2(C)[C@H]3CC[C@@H]4[C@H]5[C@H](C(=C)C)CC[C@]5(C(=O)O)CC[C@@]4(C)[C@]3(C)CC[C@H]2C(C)(C)[C@H]1O | 1.71 | 3.4 | 2.52 | 8.73 | 3.23 | 10.8 | – | – | 2.63 | 8.67 | – | – | 2.17 | 4.81 | 1.5 | 3.52 | 2.64 | 9.84 | 6.78 | 2.4
10 | COc1cc(C2c3cc4c(cc3[C@H](NC(=O)c3cccs3)C3COC(=O)[C@H]23)OCO4)cc(OC)c1OC (some centres undefined) | – | 21.7 | – | 16.4 | – | – | – | 1.05 | – | > 41 | – | 31.3 | – | 94.4 | – | 0.0236 | – | > 100 | > 100 | –
11 | CN(C)CCCNC(=O)c1cc(NC(=O)CCNC(=O)c2ccc3c(c2)C(=O)c2ccccc2C3=O)cn1C | > 100 | > 100 | > 100 | > 100 | – | – | > 100 | > 100 | – | – | 20.1 | 56.4 | > 100 | > 100 | > 100 | > 100 | > 100 | > 100 | > 100 | > 100
12 | COc1ccc(C(=O)/C(=N/Nc2ccccc2)c2ccc(OC)cc2)cc1 | – | > 100 | – | – | – | – | – | > 100 | – | – | – | – | – | > 100 | – | – | – | > 100 | > 100 | –
13 | [N-]=[N+]=Nc1ccccc1-[n+]1noc([O-])c1Br | – | > 100 | – | – | – | – | – | > 100 | – | – | – | – | – | > 100 | – | – | – | > 100 | > 100 | –
14 | COCC1C(=O)c2cc3c(cc2C12C=CC1(C=C2)OCCO1)OCO3 (centres undefined) | – | 4.54 | – | – | – | – | – | 6.77 | – | – | – | – | – | 13.1 | – | – | – | 24.6 | 24.5 | –
15 | COc1ccc(/C=C2\N=C(c3ccccc3)N(c3cc(C(F)(F)F)ccc3Cl)C2=O)cc1OC | 13.8 | 37.3 | – | – | 43.1 | > 100 | 21.4 | 41.4 | 23.8 | 51.6 | 35.4 | > 100 | 50.8 | > 100 | 31.4 | > 100 | 64.3 | > 100 | 82.1 | 31.9
16 | CN(C)c1ccccc1CC(c1c[nH]c2ccccc12)c1c[nH]c2ccccc12 | – | 25.4 | – | – | – | – | – | 23.3 | – | 24.4 | – | – | – | 26.1 | – | – | – | 27.6 | 29.3 | –
17 | N#Cc1ccc(/C=N\N2C(=O)c3ccccc3C2=O)cc1 | – | > 100 | – | – | – | – | – | > 100 | – | > 100 | – | – | – | > 100 | – | – | – | > 100 | > 100 | –
18 | O=C(/C=C/C=C/c1ccccc1)c1ccc(Nc2nc(Nc3ccccc3)nc(Nc3ccccc3)n2)cc1 | 45.8 | > 100 | > 100 | > 100 | 43.6 | > 100 | 12.2 | > 100 | > 100 | > 100 | 17.7 | > 100 | 31.4 | > 100 | – | – | > 100 | > 100 | > 100 | > 100
19 | COc1ccc2nc3cc(Cl)ccc3c(NCCC(=O)OCC(O)C(O)C(O[C@H](C)C(=O)NC(C)C(=O)NC(CCC(N)=O)C(=O)OCc3ccccc3)C(C=O)NC(C)=O)c2c1 (some centres undefined) | – | 31.9 | – | – | – | – | – | 31.9 | – | – | – | – | – | 30.5 | – | – | – | 34 | 41.8 | –
20 | COC(=O)CCC(=O)CC(=O)C(=O)Nc1ccc(F)cc1 | – | > 100 | – | – | – | – | – | > 100 | – | > 100 | – | – | – | > 100 | – | – | – | > 100 | > 100 | –
21 | Nc1nc(=O)n(C2CC(O)C(O)C(CO)O2)cc1F (centres undefined) | – | > 100 | – | – | – | – | – | > 100 | – | > 100 | – | – | – | > 100 | – | – | – | > 100 | > 100 | –
22 | O=c1oc2c3ccc4ccccc4c3n(CCN3CCOCC3)c2c2ccccc12 | – | > 100 | – | – | – | – | – | > 100 | – | > 100 | – | – | – | > 100 | – | – | – | > 100 | – | –
